# Measurements from paper PMC2600596 (European journal of pharmacology, 2008).
# Key:
# [1] = biological target: hMOR; settings: pH 7.5; cited from earlier work
# [2] = biological target: T1, hMOR (human mu opioid receptor) (Homo sapiens, UniProt P35372); assay type: binding
# [3] = biological target: T1, hMOR (human mu opioid receptor); assay type: cell-based
# [4] = tested on: mu opioid receptor; assay type: binding; settings: whole CHO cells, data not shown
# T1 sequence (P35372 whole entry): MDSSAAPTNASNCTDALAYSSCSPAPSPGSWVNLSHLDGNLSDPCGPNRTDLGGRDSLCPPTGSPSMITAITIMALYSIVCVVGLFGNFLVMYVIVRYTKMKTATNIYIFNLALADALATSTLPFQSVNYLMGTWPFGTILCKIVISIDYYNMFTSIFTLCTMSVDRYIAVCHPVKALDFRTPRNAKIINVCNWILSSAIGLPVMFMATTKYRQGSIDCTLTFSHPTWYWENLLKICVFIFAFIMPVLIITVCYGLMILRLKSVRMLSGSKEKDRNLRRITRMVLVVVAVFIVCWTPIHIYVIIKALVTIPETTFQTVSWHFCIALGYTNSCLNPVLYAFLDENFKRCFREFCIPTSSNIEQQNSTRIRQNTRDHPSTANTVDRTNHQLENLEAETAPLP
Compound,Ki [1],Hill Slope [2],Ki ([2]; pH 7.4),Imax (maximum percent inhibition of [3H]-cAMP accumulation) [3],[3H]-naloxone radioligand binding displaced [4]
"COC(=O)/C=C/C(=O)N[C@@H]1CC[C@@]2(O)[C@H]3Cc4ccc(O)c5c4[C@@]2(CCN3CC2CC2)[C@H]1O5 [β-FNA, β-funaltrexamine]",0.3 nM,−1.01,1.85 nM,,
"C[C@@H](NC(=O)[C@@H](N)Cc1ccc(O)cc1)C(=O)NCC(=O)N(C)[C@@H](Cc1ccccc1)C(=O)NCCO [DAMGO, [D-Ala^2, N-Me-Phe^4, Gly^5-ol]-enkephalin]",,−0.85,,88.8%,
"Oc1ccc2c3c1O[C@H]1c4[nH]c5ccccc5c4C[C@@]4(O)[C@@H](C2)N(CC2CC2)CC[C@]314 [Naltrindole, naltrindole]",6.3 nM,−0.99,,,
"Oc1ccc2c3c1O[C@H]1c4[nH]c5c(c4C[C@@]4(O)[C@@H](C2)N(CC2CC2)CC[C@]314)C[C@@]1(O)[C@H]2Cc3ccc(O)c4c3[C@@]1(CCN2CC1CC1)[C@H]5O4 [nor-BNI, nor-binaltorphimine]",21 nM,−0.99,,,
C=CC[N+]1(C)CC[C@]23c4c5ccc(O)c4O[C@H]2C(=O)CC[C@@]3(O)[C@H]1C5 (stereo partly shown) [naloxone methiodide],,,,,More than 94%
